Like-named read-outs stand apart in the source and are kept apart here.
Columns and labels:
[1] = system: BaF3 (EGFR Del19/T790M/C797S); test: Cell proliferation IC50 assay (Cell Titer GLO), BaF3 DTC cells; type: cell-based; details: Mus musculus, Ba/F3 EGFR-Del19/T790M/C797S, Table 5, 72 h
Procedure, shortened: (§1)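 Growth inhibition is measured over 72 h of continuous compound treatment in cells seeded at 2000-4000 per well.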

[2] = system: BaF3 (EGFR L858R/T790M/C797S); test: Cell proliferation IC50 assay (Cell Titer GLO), BaF3 LTC cells; type: cell-based; details: Mus musculus, Ba/F3 EGFR
Procedure, shortened: as §1

[3] = system: BaF3 (EGFR WT); test: Cell proliferation IC50 assay (Cell Titer GLO), BaF3 WT cells; type: cell-based; details: Mus musculus, Ba/F3 EGFR, 72 h
Procedure, shortened: as §1

[4] = system: BaF3 patent; test: Cell proliferation IC50 assay (Cell Titer GLO), BaF3 parental cells; type: cell-based; details: Mus musculus
Procedure: IC50 of compounds in the present invention was determined by Cell Titer GLO reagent from Promega. The procedures are as follows:
Tumor cells were cultured in specified medium in an incubator at 37° C. and 5% CO2. The cells were passaged periodically. Cells at the logarithmic growth phase were collected for plating at a density of 2000-4000 cells/well. The next day, the compounds of the present invention were serially diluted and added to the cells, with DMSO being the negative control and the culture media without cells being the blank control. The plate was incubated in the incubator for 72 h. The cell viability assay was performed by adding the detection reagents to the cell culture media according to Cell Titer GLO reagent instructions and detecting luminescent signals on an EnVision microplate reader (PerkinElmer).
Inhibition of cell growth by the compounds of the present invention was plotted by Prism Graphpad software for statistically calculating the IC50 of the compound of the present invention.

[5] = system: A431; test: Cell proliferation IC50 assay (Cell Titer GLO), A431 cells; type: cell-based; details: Homo sapiens, A-431, A431, 72 h, read-out: A431 IC50
Procedure, shortened: as §1

[6] = biological target: T1, BaF3 (EGFR Del19/C797S) (Homo sapiens, UniProt P00533, C797S, cells depend on it, form not given); test: Cell proliferation IC50 assay (Cell Titer GLO), BaF3 DC cells; type: cell-based, mouse; details: Table 6, 72 h
T1 construct: BaF3 (EGFR Del19/C797S)|DC|RPMI1640 + 10% FBS
T1 sequence (P00533 with tags, fused parts or gaps DEL746-750/C797S, form open): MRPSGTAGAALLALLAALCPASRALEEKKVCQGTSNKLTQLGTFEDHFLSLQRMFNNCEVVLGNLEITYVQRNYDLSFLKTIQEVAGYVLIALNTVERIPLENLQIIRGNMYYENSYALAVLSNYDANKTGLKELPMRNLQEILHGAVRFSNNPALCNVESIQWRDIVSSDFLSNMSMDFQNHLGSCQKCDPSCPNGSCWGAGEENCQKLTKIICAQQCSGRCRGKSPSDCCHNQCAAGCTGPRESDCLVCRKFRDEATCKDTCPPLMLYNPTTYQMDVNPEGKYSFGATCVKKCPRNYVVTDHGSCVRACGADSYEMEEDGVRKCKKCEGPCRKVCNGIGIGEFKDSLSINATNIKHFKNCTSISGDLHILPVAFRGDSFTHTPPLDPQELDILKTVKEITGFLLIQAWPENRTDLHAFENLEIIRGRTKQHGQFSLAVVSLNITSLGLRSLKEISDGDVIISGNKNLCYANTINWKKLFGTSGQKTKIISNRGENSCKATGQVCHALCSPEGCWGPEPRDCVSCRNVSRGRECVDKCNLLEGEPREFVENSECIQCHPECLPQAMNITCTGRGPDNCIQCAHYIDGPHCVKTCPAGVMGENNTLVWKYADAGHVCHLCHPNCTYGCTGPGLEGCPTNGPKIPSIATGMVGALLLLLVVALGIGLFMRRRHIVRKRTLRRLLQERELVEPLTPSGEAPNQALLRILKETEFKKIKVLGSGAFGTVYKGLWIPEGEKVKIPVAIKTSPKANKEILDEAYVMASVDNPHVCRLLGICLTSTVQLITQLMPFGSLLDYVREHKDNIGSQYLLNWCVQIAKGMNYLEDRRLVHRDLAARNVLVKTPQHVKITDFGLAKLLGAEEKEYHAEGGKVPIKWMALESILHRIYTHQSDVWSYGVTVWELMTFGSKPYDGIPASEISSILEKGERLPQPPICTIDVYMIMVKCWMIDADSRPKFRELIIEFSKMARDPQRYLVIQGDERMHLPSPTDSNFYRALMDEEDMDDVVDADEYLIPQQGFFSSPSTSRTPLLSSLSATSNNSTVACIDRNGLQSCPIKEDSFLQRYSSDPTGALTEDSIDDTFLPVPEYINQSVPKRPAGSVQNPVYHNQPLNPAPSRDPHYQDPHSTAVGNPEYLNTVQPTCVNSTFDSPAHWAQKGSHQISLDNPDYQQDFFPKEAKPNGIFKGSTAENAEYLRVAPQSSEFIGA
Procedure, shortened: as §1

Row | SMILES | IC50 [1] [nM] | IC50 ([2]; Table 5, 72 h) [nM] | IC50 ([3]; Table 5, 10 ng/ml EGF) [nM] | IC50 ([5]; Table 5) [nM] | IC50 ([2]; Table 6, 72 h) [nM] | IC50 [6] [nM] | IC50 ([3]; Table 6, 10 ng/ml EGF) [nM] | IC50 ([5]; Table 6) [nM] | IC50 ([4]; Table 5, 10 ng/ml mIL3, 72 h) [nM] | IC50 ([4]; Table 6, 10 ng/ml mIL3, 72 h) [nM]
1 | CCc1cc(Nc2ncc(Br)c(Nc3ccc4c(c3P(C)(C)=O)OCCO4)n2)c(OC)cc1N1CCC2(CCN(CCCC#Cc3cccc4c3CN(C3CCC(=O)NC3=O)C4=O)CC2)CC1 (stereo not drawn) [Example E28] | 11.2 | 57.9 | 955 | 1390 |  |  |  |  | 695 | 
2 | CP(C)(=O)c1ccccc1Nc1nc(Nc2ccc(N3CCC4(CCN(CCCC#Cc5cccc6c5CN(C5CCC(=O)NC5=O)C6=O)CC4)CC3)c(Cl)c2)ncc1Cl (stereo not drawn) [Example E18] | 30.9 | 266 | 724 | 2180 |  |  |  |  | 786 | 
3 | CCc1cc(Nc2ncc(Cl)c(Nc3ccccc3P(C)(C)=O)n2)c(OC)cc1N1CCC2(CCN(CCCCC#Cc3cccc4c3CN(C3CCC(=O)NC3=O)C4=O)CC2)CC1 (stereo not drawn) [Example E23] | 9.4 | 106 | > 4000 | > 4000 |  |  |  |  | > 4000 | 
4 | CN(CCCC#Cc1cccc2c1CN(C1CCC(=O)NC1=O)C2=O)C1CC2(CCN(c3ccc(Nc4ncc(Cl)c(Nc5ccccc5P(C)(C)=O)n4)cc3Cl)CC2)C1 (stereo not drawn) [Example E14] | 7.8 | 55.2 | 69 | 377 |  |  |  |  | 84.2 | 
5 | CCc1cc(Nc2ncc(Cl)c(Nc3ccccc3P(C)(C)=O)n2)c(OC)cc1N1CCC(N2CCC3(CCC(=Cc4cccc5c4CN(C4CCC(=O)NC4=O)C5=O)CC3)C2)CC1 (stereo not drawn) [Example E40] |  |  |  |  | 17.5 | 4.9 | 260 | 1210 |  | 131
6 | CCc1cc(Nc2ncc(Cl)c(Nc3ccccc3P(C)(C)=O)n2)c(OC)cc1N1CCC(N2CC3(CCC(Oc4cccc5c4CN(C4CCC(=O)NC4=O)C5=O)CC3)C2)CC1 (stereo not drawn) [Example E29] | 14 | 20.9 | 1000 | 1020 |  |  |  |  | 1370 | 
7 | COc1cc(N2CCC(N3CCC4(CCC(Oc5cccc6c5CN(C5CCC(=O)NC5=O)C6=O)CC4)C3)CC2)ccc1Nc1ncc(Cl)c(Nc2ccccc2P(C)(C)=O)n1 (stereo not drawn) [Example C-6, reference compound] | 7.8 | 33.6 | 79.2 | 342 |  |  |  |  | 93 | 
8 | CCc1cc(Nc2ncc(Cl)c(Nc3ccccc3P(C)(C)=O)n2)c(OC)cc1N1CCC(N2CCC3(CCC(Cc4cccc5c4CN(C4CCC(=O)NC4=O)C5=O)CC3)C2)CC1 (stereo not drawn) [Example E45] |  |  |  |  | 21.2 | 8.5 | 585 | 1240 |  | 221
9 | COc1cc(N2CCC(N3CCC4(CCC(Oc5cccc6c5CN(C5CCC(=O)NC5=O)C6=O)CC4)C3)CC2)c(C2CC2)cc1Nc1ncc(Cl)c(Nc2ccccc2P(C)(C)=O)n1 (stereo not drawn) [Example E27] | 3.3 | 29.8 | 937 | 1190 |  |  |  |  | 375 | 
10 | COc1cc(N2CCC3(CCN(CCCC#Cc4cccc5c4CN(C4CCC(=O)NC4=O)C5=O)CC3)CC2)ccc1Nc1ncc(Cl)c(Nc2ccccc2P(C)(C)=O)n1 (stereo not drawn) [Example C-1, reference compound] | 28 | 199 | 380 | 2820 |  |  |  |  | 376 | 
11 | COc1cc(N2CCC(N3CCN(CCC#Cc4cccc5c4CN(C4CCC(=O)NC4=O)C5=O)CC3)CC2)c(C)cc1Nc1ncc(Br)c(Nc2ccc3c(c2P(C)(C)=O)OCCO3)n1 (stereo not drawn) [Example E43] |  |  |  |  | 15.8 | 6.6 | 330 | 1060 |  | 122
12 | CCc1cc(Nc2ncc(Br)c(Nc3ccc4c(c3P(C)(C)=O)OCCO4)n2)c(OC)cc1N1CCC(N2CCN(CCC#Cc3cccc4c3CN(C3CCC(=O)NC3=O)C4=O)CC2)CC1 (stereo not drawn) [Example E22] |  |  |  |  | 34.1 | 4.1 | 275 | 1050 |  | 385
13 | COc1cc(N2CCC3(CCN(CCCC#Cc4cccc5c4CN(C4CCC(=O)NC4=O)C5=O)CC3)CC2)c(Cl)cc1Nc1ncc(Cl)c(Nc2ccccc2P(C)(C)=O)n1 (stereo not drawn) [Example E11] | 17.1 | 61.3 | 236 | > 4000 |  |  |  |  | 147 | 
14 | CP(C)(=O)c1ccccc1Nc1nc(Nc2ccc(N3CCC(N4CCN(CCC#Cc5cccc6c5CN(C5CCC(=O)NC5=O)C6=O)CC4)CC3)c(Cl)c2)ncc1Cl (stereo not drawn) [Example E17] | 3.7 | 15.5 | 25.1 | 283 |  |  |  |  | 23.4 | 
15 | CCc1cc(Nc2ncc(Cl)c(Nc3ccccc3P(C)(C)=O)n2)c(OC)cc1N1CCC(N2CCC3(CCC(Oc4cccc5c4CN(C4CCC(=O)NC4=O)C5=O)CC3)C2)CC1 (stereo not drawn) [Example E21] | 1.9 | 16.8 | 636 | 1010 |  |  |  |  | 410 | 
16 | COc1cc(N2CCC(N3CCN(CC#Cc4cccc5c4CN(C4CCC(=O)NC4=O)C5=O)CC3)CC2)ccc1Nc1ncc(Cl)c(Nc2ccccc2P(C)(C)=O)n1 (stereo not drawn) [Example C-3, reference compound] | 43.7 | 129 | 587 | 1210 |  |  |  |  | 475 | 

Continued, in another order:

Row | IC50 [1] [nM] | IC50 ([2]; Table 5, 72 h) [nM] | IC50 ([3]; Table 5, 10 ng/ml EGF) [nM] | IC50 ([5]; Table 5) [nM] | IC50 ([2]; Table 6, 72 h) [nM] | IC50 [6] [nM] | IC50 ([3]; Table 6, 10 ng/ml EGF) [nM] | IC50 ([5]; Table 6) [nM] | SMILES | IC50 ([4]; Table 5, 10 ng/ml mIL3, 72 h) [nM] | IC50 ([4]; Table 6, 10 ng/ml mIL3, 72 h) [nM]
17 |  |  |  |  | 62.3 | 54.4 | 1550 | > 4000 | COc1cc(N2CCC(N3CCN(CCC#Cc4cccc5c4CN(C4CCC(=O)NC4=O)C5=O)CC3)CC2)ncc1Nc1ncc(Cl)c(Nc2ccccc2P(C)(C)=O)n1 (stereo not drawn) [Example E71] |  | 719
18 | 13.7 | 57.2 | 1370 | 1260 |  |  |  |  | CCc1cc(Nc2ncc(Cl)c(Nc3ccccc3P(C)(C)=O)n2)c(OC)cc1N1CCC(N2CCN(CC#Cc3cccc4c3CN(C3CCC(=O)NC3=O)C4=O)CC2)CC1 (stereo not drawn) [Example E25] | 1210 | 
19 | 1.6 | 11.9 | 636 | 1020 |  |  |  |  | CCc1cc(Nc2ncc(Cl)c(Nc3ccccc3P(C)(C)=O)n2)c(OC)cc1N1CCC(N2CCN(CCCCOc3cccc4c3CN(C3CCC(=O)NC3=O)C4=O)CC2)CC1 (stereo not drawn) [Example E30] | 410 | 
20 | 41.7 | 70.7 |  |  |  |  |  |  | COc1cc(N2CCC(N3CCN(CCCc4cccc5c4CN(C4CCC(=O)NC4=O)C5=O)CC3)CC2)ccc1Nc1ncc(Cl)c(Nc2ccccc2P(C)(C)=O)n1 (stereo not drawn) [Example C-4, reference compound] | 142 | 
21 | 8.9 | 61.1 | > 4000 | 1070 |  |  |  |  | CCc1cc(Nc2ncc(Cl)c(Nc3ccccc3P(C)(C)=O)n2)c(OC)cc1N1CCC(N2CCN(CCCCCc3cc4c(cc3F)C(=O)N(C3CCC(=O)NC3=O)C4)CC2)CC1 (stereo not drawn) [Example E19] | > 4000 | 
22 | 14.3 | 46.6 | 287 |  |  |  |  |  | COc1cc(N2CCC(N3CCN(CCC#Cc4cccc5c4CN(C4CCC(=O)NC4=O)C5=O)CC3)CC2)c(C)cc1Nc1ncc(Cl)c(Nc2ccccc2P(C)(C)=O)n1 (stereo not drawn) [Example E3] | 521 | 
23 | 15.5 | 28.4 | 101 | 1210 |  |  |  |  | COc1cc(N2CCC(N3CCN(CCC#Cc4cccc5c4CN(C4CCC(=O)NC4=O)C5=O)CC3)CC2)c(Cl)cc1Nc1ncc(Cl)c(Nc2ccccc2P(C)(C)=O)n1 (stereo not drawn) [Example E10] | 54.9 | 
24 | 5.6 | 11.2 | 28.4 | 392 |  |  |  |  | CCc1cc(Nc2ncc(Cl)c(Nc3ccccc3P(C)(C)=O)n2)ccc1N1CCC(N2CCN(CCC#Cc3cccc4c3CN(C3CCC(=O)NC3=O)C4=O)CC2)CC1 (stereo not drawn) [Example E9] | 20.7 | 
25 | 55.6 | 348 | > 4000 | > 4000 |  |  |  |  | CCc1cc(Nc2ncc(Cl)c(Nc3ccccc3P(C)(C)=O)n2)c(OC)cc1N1CCC2(CCN(CCCC#Cc3ccc4c(c3)CN(C3CCC(=O)NC3=O)C4=O)CC2)CC1 (stereo not drawn) [Example E16] | > 4000 | 
26 | 8 | 53.5 | 517 | 1090 |  |  |  |  | CCc1cc(Nc2ncc(Cl)c(Nc3ccccc3P(C)(C)=O)n2)c(OC)cc1N1CCC(N2CCN(CCCc3cccc4c3CN(C3CCC(=O)NC3=O)C4=O)CC2)CC1 (stereo not drawn) [Example E26] | 546 | 
27 | 35.4 | 70.6 | 1550 | 1460 |  |  |  |  | CCc1cc(Nc2ncc(Cl)c(Nc3ccccc3P(C)(C)=O)n2)c(OC)cc1N1CCC(N2CCN(CCC#Cc3ccc4c(c3)CN(C3CCC(=O)NC3=O)C4=O)CC2)CC1 (stereo not drawn) [Example E24] | 1260 | 
